Measurements published in patent US20100168085A1, “Dopamine and agonists and antagonists thereof for modulation of suppressive activity of CD4+CD25+ regulatory T cells” (YESA RESEARCH AND DEVELOPMENT CO. LTD. at the Weizmann …, priority 2003, published 2010).
Where “and” joins values, the source holds several entries; their conditions need not be identical. Identical values can stand only once. Entries after “also recorded” stand apart in the source; their conditions may differ. Marks after values point to notes of the source that are not given here. Where no end group is shown, it is not given here.

Key:
[1] = test system: adhesion of Treg and Teff to chondroitin sulfate proteoglycans (CSPG); assay: T cell adhesion to CSPG; format: cell-based, mouse
Description: (xiii) T cell adhesion. Adhesion of activated CD4^+CD25^+ and CD4^+CD25^− T cells to CSPG was analyzed as previously described (23). Briefly, flat-bottomed microtiter (96-well) plates were pre-coated with CSPG (1 μg/well, 40 min, 37° C.). ^51Cr-labeled T cells were left untreated or were pre-incubated (30 min, 37° C.) with dopamine or the specified agonist or antagonist (10^−5M). The cells (10^5 cells in 100 μL of RPMI containing 0.1% BSA) were then added to the CSPG-coated wells, incubated (30 min, 37° C.), and washed. Adherent cells were lysed and the resulting supernatants were removed and counted in a γ-counter. Results were expressed as the mean percentage of the total population before adhesion of bound T cells from quadruplicate wells for each experimental group.
One of the main features of T cells is their ability to migrate to tissues in need of rescue or repair [such as diseased or damaged CNS (Hickey, 1999; Flugel et al., 2001). […] We therefore incubated Treg with dopamine for 2 h and then examined their adhesion to chondroitin sulfate proteoglycans (CSPG), extracellular matrix proteins often associated with injured tissues (Jones et al., 2003).
To verify that the effect of dopamine on adhesion of Treg is exerted through the ERK1/2 pathway, we incubated Treg with the ERK1/2 signaling pathway inhibitor PD98059 before carrying out the adhesion assay. […] Since interaction of T cells with CSPG is mediated in part by the CD44 receptor (Henke et al., 1996), and in light of the known dependence of CD44 expression on the ERK signaling pathway, it was conceivable that dopamine might affect the expression of CD44 in Treg.

[2] = test system: suppressive activity of CD4+CD25+ regulatory T cells (Treg) on Teff proliferation; assay: Inhibition assay (co-culturing of Teff with Treg), [3H]-thymidine incorporation; format: cell-based, mouse; details: for Suppressive activity of Treg on Teff, kinase inhibitor treatment: activated Treg incubated with inhibitor; for Effect on ability of Treg to suppress Teff proliferation: Treg preincubated with different concentrations
Description: (xvi) Activation of CD4^+CD25^+ regulatory T cells. Purified regulatory T cells (Treg; 0.5×10^6 cells/mL) were activated in RPMI medium supplemented with L-glutamine (2 mM), 2-mercaptoethanol (5×10^−5 M), sodium pyruvate (1 mM), penicillin (100 IU/mL), streptomycin (100 μg/mL), nonessential amino acids (1 mL/100 mL), and autologous serum 2% (vol/vol) in the presence of mrIL-2 (5 ng/mL) and soluble anti-CD3 antibodies (1 ng/mL). Irradiated (2500 rad) splenocytes (1.5×10^6 cells/mL) were added to the culture. Cells were activated for 24 or 96 h. In some of the 96-h experiments, fresh dopamine was added to the culture every 24 h during activation.
(xvii) Inhibition assay (co-culturing of Teff with Treg). Naïve effector T cells (Teff; 50×10^3 cells/well) were co-cultured with decreasing numbers of activated Treg for 72 h in 96-well flat-bottomed plates in the presence of irradiated splenocytes (10^6/mL) supplemented with anti-CD3 antibodies. [^3H]-thymidine (1 μCi) was added for the last 16 h of culture. After the cells were harvested, their [^3H]-thymidine content was analyzed by the use of […].
In this experiment, we examined whether dopamine acts on Treg and alters their suppressive effect on Teff. Suppression of proliferation of Teff, assayed by [^3H]thymidine incorporation, was used as a measure of suppressive effect of Treg (Thornton and Shevach, 1998).
Shevach, 1998, 2000). Inhibition of Treg proliferation, assayed by [^3H]thymidine incorporation, can therefore be taken as a measure of the suppressive effect. We examined the ability of major neurotransmitters and neuropeptides (dopamine, norepinephrine, substance P, and serotonin) to alleviate the Treg-induced suppression of Teff in vitro. Each compound was tested at several concentrations. […] After incubating the activated Treg for 2 h with a neurotransmitter or a neuropeptide, we washed the cells and then co-cultured them with Teff.

[3] = test system: mice, glutamate-induced retinal ganglion cell death; assay: Intravitreal glutamate toxicity, retinal ganglion cell survival; format: in vivo, mouse; details: retinas excised 7 days afterwards
Treg = Treg apoptosis (propidium iodide sub-G1, annexin V, FACS); format: cell-based, mouse; details: Treg incubated with compound
Description: (viii) FACS analysis of annexin V-positive regulatory T cells. PE-stained CD25^+ cells were stained for annexin V-FITC according to the manufacturer's instructions. The cells were scored as described above, and CD25^+ lymphocytes were then gated for analysis of annexin V-positive cells.
(xv) Propidium iodide staining. Cells were fixed in cold ethanol 80% and treated with RNAse. Propidium iodide was then applied, and cell samples were assessed by FACSort.

[4] = test system: phospho-ERK1/2 in Treg and Teff; assay: ERK1/2 phosphorylation (intracellular FACS staining, Western blot); format: cell-based, mouse; details: activation with anti-CD3 and anti-CD28 for 20 min
Description: (ix) FACS analysis of intracellular labeling of phosphorylated form of ERK. T-cell subpopulations were fixed in 1.5% formaldehyde for 10 min at room temperature, washed, resuspended with vortexing in cold 100% methanol, and incubated for 1 h at 4° C. The cells were then washed with PBS containing 1% bovine serum albumin (BSA) and resuspended in 100 μL of PBS/BSA, and 12.5 μL of anti-phosphoERK1 & 2 (BioSource) was added for 20 min at room temperature. The cells were then washed, resuspended in PBS, and analyzed by FACSCalibur (Becton-Dickinson). As a negative control we incubated the phospho-peptide for 20 min with its antibody and then added the mixture to T cells.
(xix) Western blotting. Cells were stimulated for 20 min with anti-CD3 and anti-CD28 antibodies in the presence or absence of dopamine or SKF-38393. Cell lysates were prepared using RIPA lysis buffer (50 mM Tris, pH 8; 0.1% SDS; 0.5% deoxycholate; 1% NP40; 500 mM NaCl; 10 mM MgCl2) and were then kept on ice for 10 min before being vortexed and centrifuged. Supernatants were collected and 5× sample buffer (containing 25 mM Tris pH 6.8, 2% sodium dodecyl sulfate (SDS), 10% glycerol, 0.1% bromophenol blue, 0.5 M β-mercaptoethanol) was added prior to boiling. Cell extracts were separated by SDS-PAGE (10% polyacrylamide), and blotted onto nitrocellulose. Activated ERK1/2 was detected by probing blots with a 1:30,000 dilution of monoclonal antibody. Total ERK protein was detected by using a 1:10,000 dilution of a polyclonal rabbit antibody. The blots were developed by horseradish peroxidase-conjugated anti-mouse or anti-rabbit Fab and ECL (Amersham). Signals were quantified using NIH Image 1.62.
Treg were activated for 20 min in the presence or absence of dopamine (10^−5 M), and were then subjected to intracellular phosphoprotein staining (Perez and Nolan 2002) and analyzed by flow cytometry. […] As a measure of the background nonspecific staining of the phosphorylated ERK we used a specific peptide of phospho-ERK, which competes for binding of the antibody. The intracellular staining procedure for phospho-ERK detection by FACS was validated by the use of Teff incubated with 20 μM phorbol 12-myristate 13-acetate (PMA), known to stimulate the activity of protein kinase C (PKC) (data not shown).

[5] = test system: mouse solid melanoma tumor cells M2R; assay: M2R melanoma tumor development in mice; format: in vivo
Description: To verify the effect of dopamine and its related compounds on tumor growth, C57BL mice were injected with the specific D1-R agonist SKF-38393 (3.3 mg/kg) immediately after inoculation of mouse solid melanoma tumor cells M2R. The experimental group (n=10) received a single injection of SKF-38393, and a control group (n=11) was injected with PBS.
To further isolate the effect of dopamine on the immune system, C57BL mice (n=10) and SCID mice (n=8) were injected with SKF-38393 (3.3 mg/kg) immediately after injecting them with solid tumor cells M2R (FIG. 9c).

[6] = test system: mice, glutamate-induced retinal ganglion cell death; assay: Intravitreal glutamate toxicity, retinal ganglion cell survival; format: in vivo, mouse; details: for Changes in neuronal survival in treated relative to untreated mice (mean±SEM): systemic injection immediately after glutamate intoxication
Description: (iii) Intravitreal glutamate injection. The right eyes of anesthetized mice were punctured with a 27-gauge needle in the upper part of the sclera, and a 10-μL Hamilton syringe with a 30-gauge needle was inserted as far as the vitreal body. A total volume of 1 μl, of L-glutamate (400 nmol) dissolved in saline was injected into the eye.
(iv) Retrograde labeling of retinal ganglion cells. Mice were anesthetized and placed in a stereotactic device. The skull was exposed and kept dry and clean. The bregma was identified and marked. The designated point of injection was at a depth of 2 mm from the brain surface, 2.92 mm behind the bregma in the anteroposterior axis and 0.5 mm lateral to the midline. A window was drilled in the scalp above the designated coordinates in the right and left hemispheres. The neurotracer dye FluoroGold (5% solution in saline; Fluorochrome, Denver, Colo.) was applied (1 μL, at a rate of 0.5 μL/min in each hemisphere) using a Hamilton syringe, and the skin over the wound was sutured.
(xxi) Assessment of mouse retinal ganglion cell survival. Mice were given a lethal dose of pentobarbitone (170 mg/kg). Their eyes were enucleated and the retinas were detached and prepared as flattened whole mounts in 4% paraformaldehyde solution. Labeled cells from 4-6 selected fields of identical size (0.7 mm^2) were counted. The selected fields were located at approximately the same distance from the optic disk (0.3 mm) to overcome the variation in RGC density as a function of distance from the optic disk. Fields were counted under the fluorescence microscope (magnification ×800) by observers blinded to the identity of the retinas. The average number of RGCs per field in each retina was calculated.
Injection of glutamate into the eyes of adult mice causes retinal ganglion cell death that is measurable 1 week after the injection (Mizrahi et al., 2002; Schori et al., 2001a; Katayama et al., 1990). We injected Balb/c mice intraperitoneally (i.p.) with the dopamine, or its specific D1-type agonist SKF-38393 (3.3 mg/kg), or its specific D1-type antagonist SCH-23390 (3 mg/kg), immediately after their exposure to glutamate toxicity. We also injected SCID Balb/c mice with SKF-38393 (3.3 mg/kg) immediately after glutamate intoxication.
Immediately after glutamate intoxication mice were systemically injected with the indicated drugs. Neuronal survival was determined ten days later (see Materials and Methods). The results are expressed by changes (in percentage) in neuronal survival in treated mice relative to untreated mice. Each value represents a mean±SEM of a group of at least 5 animals, and each experiment was performed at least twice, independently. Asterisks (***, P<0.001; **, P<0.01) indicate statistical significance of the presented data from a single experiment using a Student's T-test statistical analysis. (NT—not tested; ns—no statistical significance).

## COc1cccc(-c2cc(=O)c3ccccc3o2)c1N [PD98059]
[1]; Treg incubated with PD98059 before assay
  Adhesion of Treg to CSPG after ERK1/2 pathway inhibitor: significantly reduced
[2]
  Suppressive activity of Treg on Teff, kinase inhibitor treatment: significantly reduced the suppressive activity; also recorded: almost completely abolished their suppression

## Oc1cc2c(cc1O)C(c1ccccc1)CNCC2 (racemic) [SKF-38393, (+/−)-1-Phenyl-2,3,4,5-tetrahydro-(1H)-3-benzazepine-7,8-diol.HC1]
[3]; 0.33 mg/kg i.v.
  Neuronal survival compared to vehicle-injected mice: neuroprotective trend, however not significant
[3]; 3.3 mg/kg i.v.
  Neuronal survival compared to vehicle-injected mice: significant increase in neuronal survival
Treg
  Apoptosis, annexin V staining for phosphatidylserine: No increase in annexin V-labeled cells
[4]
  Phospho-ERK1/2 in activated Treg, Western blot: reduced
[1]; dopamine 10^−9-10^−5 M, concentration-dependent, agonist 10^−5 M
  Adhesion of Treg to CSPG: mimicked
[2]; 10^−5 M
  Effect on suppressive activity of Treg, compound alone: reproduced the dopamine effect
[5]; C57BL mice, single injection 3.3 mg/kg immediately after M2R inoculation
  Tumor development: significantly attenuated
[5]; SCID mice, 3.3 mg/kg immediately after M2R inoculation
  Tumor development: No effect
[6]; Balb/c, single i.p. injection, dopamine 0.4 mg/kg, SKF-38393 3.3 mg/kg
  Increase in neuronal survival relative to PBS-treated glutamate-injected controls: 19±3.2%
[6]; SCID Balb/c, 3.3 mg/kg
  Effect on neuronal survival in immune-deficient mice: no effect; also recorded: lack of effect
[6]; SCID mice
  Changes in neuronal survival in treated relative to untreated mice (mean±SEM): 3 ± 1.8 (ns) percentage
[6]; Wild type mice
  Changes in neuronal survival in treated relative to untreated mice (mean±SEM): 19 ± 3.2** percentage

## substance P: a pain- and stress-related neurotransmitter (neuropeptide) (RPKPQQFFGLM-NH2; UniProt P20366 58-68, looked up)
[2]
  Effect on ability of Treg to suppress Teff proliferation: no effect

## O=c1c(-c2ccc(O)cc2)coc2cc(O)cc(O)c12 [genistein, 4′,5,7-trihydroxy isoflavone]
[2]
  Suppressive activity of Treg on Teff, kinase inhibitor treatment: blocked the suppressive activity
[2]; in the presence of genistein
  Proliferation of Treg themselves: underwent proliferation themselves
[2]; same concentration as used on Treg
  Proliferation of Teff: had no effect

## CN1CCc2cc(Cl)c(O)cc2[C@@H](c2ccccc2)C1 [SCH-23390]
[6]; Balb/c, SCH-23390 3 mg/kg i.p., 3 mg/kg
  Decrease in neuronal survival relative to PBS-injected mice: 11±1.5% and 11%
[6]; Wild type mice
  Changes in neuronal survival in treated relative to untreated mice (mean±SEM): −11 ± 1.5** percentage

## NCCc1c[nH]c2ccc(O)cc12 [serotonin]
[2]
  Effect on ability of Treg to suppress Teff proliferation: no effect

## NC[C@H](O)c1ccc(O)c(O)c1 [norepinephrine]
[2]; 10^−5 or 10^−7 M for 2 h after 24 h activation
  Effect on suppressive activity of Treg: did not affect the suppressive activity of Treg
[2]
  Effect on ability of Treg to suppress Teff proliferation: no effect
